Measurements: patent US20240208992A1, “MACROCYCLES AS CFTR MODULATORS” (Idorsia Pharmaceuticals Ltd, priority 2021, published 2024)

Target: human F508del-CFTR (Homo sapiens, UniProt P13569, DEL508-508)
Experiment: F508del-CFTR cell surface expression (corrector activity), DiscoveRx ß-galactosidase complementation chemiluminescence assay in recombinant U2OS cell line;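 also: U2OS cells co-expressing ProLink-tagged F508del-CFTR and a membrane-anchored enzyme acceptor, where more surface CFTR restores β-galactosidase activity measured by chemiluminescence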
Conditions: for EC50: EC50, F508del-CFTR cell surface expression, U2OS cells, 16h compound incubation, geomean values; for Emax: U2OS, in relation to Emax of corrector lumacaftor (=100%), arithmetic mean values

Sequence of human F508del-CFTR (P13569 with tags, fused parts or gaps DEL508-508): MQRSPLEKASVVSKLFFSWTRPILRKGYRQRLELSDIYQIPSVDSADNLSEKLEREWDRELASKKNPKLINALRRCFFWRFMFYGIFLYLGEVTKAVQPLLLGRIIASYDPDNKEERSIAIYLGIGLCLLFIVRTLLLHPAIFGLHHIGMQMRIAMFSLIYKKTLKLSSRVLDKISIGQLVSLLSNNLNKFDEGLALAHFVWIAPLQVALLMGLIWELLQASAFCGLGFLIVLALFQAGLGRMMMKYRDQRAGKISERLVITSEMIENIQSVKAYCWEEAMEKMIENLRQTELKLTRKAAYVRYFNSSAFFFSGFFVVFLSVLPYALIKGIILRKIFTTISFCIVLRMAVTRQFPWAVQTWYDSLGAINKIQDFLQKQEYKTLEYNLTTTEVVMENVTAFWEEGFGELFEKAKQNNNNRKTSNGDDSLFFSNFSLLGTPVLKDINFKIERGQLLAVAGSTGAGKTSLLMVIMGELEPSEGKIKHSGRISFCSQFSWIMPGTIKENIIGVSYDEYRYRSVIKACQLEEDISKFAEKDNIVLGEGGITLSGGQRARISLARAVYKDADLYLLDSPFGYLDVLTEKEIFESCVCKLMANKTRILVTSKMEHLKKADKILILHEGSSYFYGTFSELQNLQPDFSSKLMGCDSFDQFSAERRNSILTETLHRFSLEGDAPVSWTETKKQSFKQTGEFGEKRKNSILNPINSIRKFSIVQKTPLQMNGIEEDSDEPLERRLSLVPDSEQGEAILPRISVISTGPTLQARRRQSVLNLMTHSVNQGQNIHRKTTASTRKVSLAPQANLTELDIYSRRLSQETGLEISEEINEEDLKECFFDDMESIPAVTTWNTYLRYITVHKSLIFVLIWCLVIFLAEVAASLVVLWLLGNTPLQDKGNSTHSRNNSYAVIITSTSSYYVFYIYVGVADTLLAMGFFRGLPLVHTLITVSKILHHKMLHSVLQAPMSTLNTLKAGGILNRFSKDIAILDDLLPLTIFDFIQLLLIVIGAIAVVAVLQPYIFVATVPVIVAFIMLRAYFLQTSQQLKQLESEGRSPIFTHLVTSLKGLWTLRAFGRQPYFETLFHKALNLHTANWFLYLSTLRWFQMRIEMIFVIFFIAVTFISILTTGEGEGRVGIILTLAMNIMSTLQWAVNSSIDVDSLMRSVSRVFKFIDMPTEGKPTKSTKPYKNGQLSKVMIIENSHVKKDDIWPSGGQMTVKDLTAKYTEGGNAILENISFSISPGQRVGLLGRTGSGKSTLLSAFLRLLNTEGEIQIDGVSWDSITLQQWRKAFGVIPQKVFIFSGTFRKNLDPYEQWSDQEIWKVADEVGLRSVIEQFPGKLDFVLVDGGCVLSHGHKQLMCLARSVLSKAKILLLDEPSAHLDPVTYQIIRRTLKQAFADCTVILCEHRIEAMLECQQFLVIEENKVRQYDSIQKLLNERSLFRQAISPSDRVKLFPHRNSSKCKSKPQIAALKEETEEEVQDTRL

Row | SMILES | EC50 [µM] | Emax [%]
1 | COc1cccc(CCNC(=O)[C@@H]2CC(=O)N(C)[C@@H](CC(C)C)C(=O)N(C)C3(CC3)C(=O)N[C@H](Cc3ccccc3)COc3ccc4cccnc4c3C(=O)N2)c1 [Example 471, (9′R,15′S,19′S)-9′-benzyl-15′-isobutyl-N-(3-methoxyphenethyl)-13′,16′-dimethyl-11′,14′,17′,21′-tetraoxo-8′,9′,10′,11′,14′,15′,16′,17′,18′,19′,20′,21′-dodecahydro-13′H-spiro[cyclopropane-1,12′-[1]oxa[4,7,10,14]tetraazacycloheptadecino[17,16-h]quinoline]-19′-carboxamide] | 0.981 | 278
2 | CC(C)C[C@H]1C(=O)N2CCCC[C@@H]2C(=O)N[C@H](Cc2ccccc2)COc2ccc3ncccc3c2C(=O)N[C@H](C(=O)NCCc2ccc(-n3nccn3)cc2)CC(=O)N1C [Example 472, (9S,13S,19aR,22R)-N-(4-(2H-1,2,3-triazol-2-yl)phenethyl)-22-benzyl-13-isobutyl-12-methyl-7,11,14,20-tetraoxo-7,8,9,10,11,12,13,14,17,18,19,19a,20,21,22,23-hexadecahydro-16H-pyrido[2′,1′:6,7][1]oxa[4,7,10,14]tetraazacycloheptadecino[16,17-f]quinoline-9-carboxamide] | 0.284 | 239
3 | CC(C)C[C@H]1C(=O)N2CCCC[C@H]2C(=O)N[C@H](Cc2ccccc2)COc2ccc3ncccc3c2C(=O)N[C@H](C(=O)NCCc2ccc(-n3nccn3)cc2)CC(=O)N1C [Example 473, (9S,13S,19aS,22R)-N-(4-(2H-1,2,3-triazol-2-yl)phenethyl)-22-benzyl-13-isobutyl-12-methyl-7,11,14,20-tetraoxo-7,8,9,10,11,12,13,14,17,18,19,19a,20,21,22,23-hexadecahydro-16H-pyrido[2′,11:6,7][1]oxa[4,7,10,14]tetraazacycloheptadecino[16,17-f]quinoline-9-carboxamide] | 0.585 | 119
4 | CC(C)C[C@H]1C(=O)N(C)C2(CC2)C(=O)N[C@H](Cc2ccccc2)COc2cnc3ccccc3c2C(=O)N[C@H](C(=O)NCCc2cc(C3CC3)no2)CC(=O)N1C [Example 476, (3′S,7′S,13′R)-13′-benzyl-N-(2-(3-cyclopropylisoxazol-5-yl)ethyl)-7′-isobutyl-6′,9′-dimethyl-1′,5′,8′,11′-tetraoxo-2′,3′,4′,5′,6′,7′,8′,9′,11′,12′,13′,14′-dodecahydro-1′H-spiro[cyclopropane-1,10′-[1]oxa[4,7,10,14]tetraazacycloheptadecino[17,16-c]quinoline]-3′-carboxamide] | 0.333 | 344
5 | COc1nccc2c1C(=O)N[C@H](C(=O)NCCc1c(F)cccc1F)CC(=O)N(C)[C@@H](CC(C)C)C(=O)N1CCCC[C@@H]1C(=O)N[C@H](Cc1ccccc1)CO2 [Example 478, (7S,11S,17aR,20R)-20-benzyl-N-(2,6-difluorophenethyl)-11-isobutyl-4-methoxy-10-methyl-5,9,12,18-tetraoxo-5,6,7,8,9,10,11,12,15,16,17,17a,18,19,20,21-hexadecahydro-14H-dipyrido[2,1-f:3′,4′-p][1]oxa[4,7,10,14]tetraazacycloheptadecine-7-carboxamide] | 0.168 | 337
6 | CC(C)C[C@H]1C(=O)N2CCCC[C@@H]2C(=O)N[C@H](Cc2ccccc2)COc2cnc3ccc(F)cc3c2C(=O)N[C@H](C(=O)NCCc2ccc(-n3nccn3)cc2)CC(=O)N1C [Example 481, (9S,13S,19aR,22R)-N-(4-(2H-1,2,3-triazol-2-yl)phenethyl)-22-benzyl-5-fluoro-13-isobutyl-12-methyl-7,11,14,20-tetraoxo-7,8,9,10,11,12,13,14,17,18,19,19a,20,21,22,23-hexadecahydro-16H-pyrido[2′,1′:6,7][1]oxa[4,7,10,14]tetraazacycloheptadecino[17,16-c]quinoline-9-carboxamide] | 0.448 | 225
7 | Cc1nc2ccc3c(c2o1)C(=O)N[C@H](C(=O)NCCc1c(F)cccc1F)CC(=O)N(C)[C@@H](CC(C)C)C(=O)N1CCCC[C@@H]1C(=O)N[C@H](Cc1ccccc1)CO3 [Example 482, (8S,12S,18aR,21R)-21-benzyl-N-(2,6-difluorophenethyl)-12-isobutyl-4,11-dimethyl-6,10,13,19-tetraoxo-6,7,8,9,10,11,12,13,16,17,18,18a,19,20,21,22-hexadecahydro-15H-oxazolo[4′,5′:5,6]benzo[1,2-p]pyrido[2,1-f][1]oxa[4,7,10,14]tetraazacycloheptadecine-8-carboxamide] | 0.414 | 247
8 | COc1nccc2c1C(=O)N[C@H](C(=O)NCCc1noc(C3CC3)n1)CC(=O)N(C)[C@@H](CC(C)C)C(=O)N1CCCC[C@@H]1C(=O)N[C@H](Cc1ccccc1)CO2 [Example 483, (7S,11S,17aR,20R)-20-benzyl-N-(2-(5-cyclopropyl-1,2,4-oxadiazol-3-yl)ethyl)-11-isobutyl-4-methoxy-10-methyl-5,9,12,18-tetraoxo-5,6,7,8,9,10,11,12,15,16,17,17a,18,19,20,21-hexadecahydro-14H-dipyrido[2,1-f:3′,4′-p][1]oxa[4,7,10,14]tetraazacycloheptadecine-7-carboxamide] | 0.517 | 311
9 | CC(C)C[C@H]1C(=O)N2CCCC[C@@H]2C(=O)N[C@H](Cc2ccccc2)COc2nc3ccccn3c2C(=O)N[C@H](C(=O)NCCc2c(F)cccc2F)CC(=O)N1C [Example 484, (7S,11S,22R,24aR)-22-benzyl-N-(2,6-difluorophenethyl)-7-isobutyl-8-methyl-6,9,13,24-tetraoxo-1,3,4,6,7,8,9,10,11,12,13,21,22,23,24,24a-hexadecahydro-2H-pyrido[2,1-f]pyrido[2′,1′:2,3]imidazo[4,5-p][1]oxa[4,7,10,14]tetraazacycloheptadecine-11-carboxamide] | 0.251 | 117

The remaining lines, values ahead:

Row | EC50 [µM] | Emax [%] | SMILES
10 | 0.662 | 169 | Cc1cc(CCNC(=O)[C@@H]2CC(=O)N(C)[C@@H](CC(C)C)C(=O)N3CCCC[C@@H]3C(=O)N[C@H](Cc3ccccc3)COc3nc4ccccn4c3C(=O)N2)on1 [Example 470, (7S,11S,22R,24aR)-22-benzyl-7-isobutyl-8-methyl-N-(2-(3-methylisoxazol-5-yl)ethyl)-6,9,13,24-tetraoxo-1,3,4,6,7,8,9,10,11,12,13,21,22,23,24,24a-hexadecahydro-2H-pyrido[2,1-f]pyrido[2′,1′:2,3]imidazo[4,5-p][1]oxa[4,7,10,14]tetraazacycloheptadecine-11-carboxamide]
11 | 0.478 | 359 | Cc1cc(CCNC(=O)[C@@H]2CC(=O)N(C)[C@@H](CC(C)C)C(=O)N3CCCC[C@@H]3C(=O)N[C@H](Cc3ccccc3)COc3ccc4ncccc4c3C(=O)N2)on1 [Example 474, (9S,13S,19aR,22R)-22-benzyl-13-isobutyl-12-methyl-N-(2-(3-methylisoxazol-5-yl)ethyl)-7,11,14,20-tetraoxo-7,8,9,10,11,12,13,14,17,18,19,19a,20,21,22,23-hexadecahydro-16H-pyrido[2′,11:6,7][1]oxa[4,7,10,14]tetraazacycloheptadecino[16,17-f]quinoline-9-carboxamide]
12 | 0.992 | 314 | Cc1cc(CCNC(=O)[C@@H]2CC(=O)N(C)[C@@H](CC(C)C)C(=O)N3CCN(S(=O)(=O)c4cccnc4)C[C@@H]3C(=O)N[C@H](Cc3ccccc3)COc3ccc4ccccc4c3C(=O)N2)on1 [Example 475, (4aR,7R,18S,22S)-7-benzyl-22-isobutyl-21-methyl-N-(2-(3-methylisoxazol-5-yl)ethyl)-5,16,20,23-tetraoxo-3-(pyridin-3-ylsulfonyl)-2,3,4,4a,5,6,7,8,16,17,18,19,20,21,22,23-hexadecahydro-1H-naphtho[1,2-p]pyrazino[2,1-f][1]oxa[4,7,10,14]tetraazacycloheptadecine-18-carboxamide]
13 | 0.754 | 327 | COc1nccc2c1C(=O)N[C@H](C(=O)NCCc1cc(C)no1)CC(=O)N(C)[C@@H](CC(C)C)C(=O)N1CCCC[C@@H]1C(=O)N[C@H](Cc1ccccc1)CO2 [Example 477, (7S,11S,17aR,20R)-20-benzyl-11-isobutyl-4-methoxy-10-methyl-N-(2-(3-methylisoxazol-5-yl)ethyl)-5,9,12,18-tetraoxo-5,6,7,8,9,10,11,12,15,16,17,17a,18,19,20,21-hexadecahydro-14H-dipyrido[2,1-f:3′,4′-p][1]oxa[4,7,10,14]tetraazacycloheptadecine-7-carboxamide]
14 | 0.48 | 253 | COc1cncc(S(=O)(=O)N2CCN3C(=O)[C@H](CC(C)C)N(C)C(=O)C[C@@H](C(=O)NCCc4cc(C)no4)NC(=O)c4c(ccc5ccccc45)OC[C@@H](Cc4ccccc4)NC(=O)[C@H]3C2)c1 [Example 479, (4aR,7R,18S,22S)-7-benzyl-22-isobutyl-3-((5-methoxypyridin-3-yl)sulfonyl)-21-methyl-N-(2-(3-methylisoxazol-5-yl)ethyl)-5,16,20,23-tetraoxo-2,3,4,4a,5,6,7,8,16,17,18,19,20,21,22,23-hexadecahydro-1H-naphtho[1,2-p]pyrazino[2,1-f][1]oxa[4,7,10,14]tetraazacycloheptadecine-18-carboxamide]
15 | 0.201 | 276 | Cc1cc(CCNC(=O)[C@@H]2CC(=O)N(C)[C@@H](CC(C)C)C(=O)N3CCCC[C@@H]3C(=O)N[C@H](Cc3ccccc3)COc3cnc4ccc(F)cc4c3C(=O)N2)on1 [Example 480, (9S,13S,19aR,22R)-22-benzyl-5-fluoro-13-isobutyl-12-methyl-N-(2-(3-methylisoxazol-5-yl)ethyl)-7,11,14,20-tetraoxo-7,8,9,10,11,12,13,14,17,18,19,19a,20,21,22,23-hexadecahydro-16H-pyrido[2′,11:6,7][1]oxa[4,7,10,14]tetraazacycloheptadecino[17,16-c]quinoline-9-carboxamide]
